Assay [1] deals with Glutamate receptor ionotropic, NMDA 1 (Rattus norvegicus, UniProt P35439). Put plainly: Binding selectivity towards N-methyl-D-aspartate glutamate receptor 1 was determined by using [3H]- glycine/NMDA.
Assay [2] concerns the target Glutamate receptor ionotropic, AMPA (Rattus norvegicus, UniProt P19490+P19491+P19492+P19493). Put plainly: Binding selectivity towards Ionotropic glutamate receptor AMPA was determined by using [3H]- AMPA. It counts as protein-complex assay.

Here are results for 19 compounds from ChEMBL document CHEMBL1145086, “Selectivity fields: comparative molecular field analysis (CoMFA) of the glycine/NMDA and AMPA receptors” (J Med Chem, 2003).

Each structure is given as a SMILES string. “And” between values parts separate entries of the source, which are not always exact repeats. Equal values may be shown once.

The term Ki denotes a measure of affinity in units of concentration, obtained from inhibition or displacement. Take `CCOC(=O)c1nc2c(=O)[nH]c3cc(Cl)c(N)cc3n2n1`: the affinity in assay [1] corresponds to a Ki of 4.8 µM.
With `CCOC(=O)c1nc2c(O)nc3ccc(Cl)c(Cl)c3n2n1`, the Ki in assay [2] stood at 4.9 µM; in assay [1], 4.8 µM.
For `CCOC(=O)c1nc2c(=O)[nH]c3cc(Cl)c(-n4ccc[n+]4C=O)cc3n2n1` the same measures were 1.9 µM and 19 µM.
For `CCOC(=O)c1cc2n(n1)C(C(=O)O)Nc1cc(Cl)c([N+](=O)[O-])cc1-2` (stereo not given) the same measures were 8.2 µM and 10.6 µM.
`O=C(O)c1cc2n(n1)C(C(=O)O)Nc1cc(Cl)c(Cl)cc1-2` (stereo not given): the Ki in assay [2] turned out to be 2.4 µM; in assay [1], 0.16 µM.
For `O=C[n+]1cccn1-c1cc2c(cc1Cl)NC(C(=O)O)n1nc(C(=O)O)cc1-2` (stereo not given) the same measures were 0.27 µM and 8.2 µM.
For the compound `O=C(O)c1cc2n(n1)C(C(=O)O)Nc1cc(Cl)c(-n3ccnc3)cc1-2` (stereo not given), the Ki in assay [2] was found to be 0.14 µM; in assay [1] it was 8.3 µM.
For `O=C(O)c1nc2c(=O)[nH]c3cc(Cl)c(-n4ccnc4)cc3n2n1` the same measures were 0.14 µM and 33.5 µM.
On to `O=C(O)c1nc2c(=O)[nH]c3cc(Cl)c(-n4cccn4)cc3n2n1`, for which the Ki in assay [2] is 0.86 µM; in assay [1] it was 0.86 µM and 5.3 µM.
In the case of `CCOC(=O)c1nc2c(O)nc3cc(Cl)c([N+](=O)[O-])cc3n2n1`, the affinity in assay [1], expressed as Ki, was 10.2 µM.
For `CCOC(=O)c1nc2c(O)nc3cc(Cl)c(-n4cccn4)cc3n2n1`, the values for the inhibitory constant (Ki) in assay [2] and in assay [1] were 18.4 µM and 23 µM, respectively.
The matching figures for `CCOC(=O)c1cc2n(n1)C(C(=O)O)Nc1cc(Cl)c(-n3ccc[n+]3C=O)cc1-2` (stereo not given): 1.4 µM and 57 µM.
Turning to `O=C[n+]1cccn1-c1cc2c(cc1Cl)[nH]c(=O)c1nc(C(=O)O)nn12`, the Ki in assay [2] is 0.53 µM; in assay [1], 28 µM.
For `Nc1cc2c(cc1Cl)nc(O)c1nc(C(=O)O)nn12`, in assay [1], the affinity corresponds to a Ki of 3.6 µM.
Turning to `O=C(O)c1cc2n(n1)C(C(=O)O)Nc1cc(Cl)c([N+](=O)[O-])cc1-2` (stereo not given), the Ki was found to be 0.74 µM in assay [2] and 1.1 µM in assay [1].
Take `O=C(O)c1cc2n(n1)C(C(=O)O)Nc1ccccc1-2` (stereo not given): the Ki turned out to be 12.4 µM in assay [2] and 1.41 µM in assay [1].
On to `CCOC(=O)c1cc2n(n1)C(C(=O)O)Nc1ccccc1-2` (stereo not given), for which the Ki was found to be 42 µM in assay [2] and 33.3 µM in assay [1].
Regarding `O=C(O)c1cc2n(n1)C(C(=O)O)Nc1cc(Cl)ccc1-2` (stereo not given), the figures for the Ki in assay [2] and in assay [1] were 2.3 µM and 0.48 µM, respectively.
Regarding `CCOC(=O)c1cc2n(n1)C(C(=O)O)Nc1cc(Cl)ccc1-2` (stereo not given), the inhibition constant Ki is 72 µM in assay [2] and 26.5 µM in assay [1].
